Data from ChEMBL document CHEMBL3885861, “Open TG-GATES”.

Organism: Rattus norvegicus
Assay: Open TG-GATES - Regimen: Single
Type: toxicity, organism-based, Sprague-Dawley
Set-up: regimen Single, gender Male, age 6 weeks
Details: in vivo, po, 50 mg/kg, route gavage, dose level Middle; for APTT / Bas / Eos / Fbg / Hb / Ht / Lym / MCH / MCHC / MCV / Mono / Neu / PT / Plat / RBC / Ret / WBC: tissue Blood; for KIDNEY_L / KIDNEY_R / KIDNEY_TOTAL: tissue Kidney; for LIVER: tissue Liver; for A/G / ALP / ALT / AST / BUN / CRE / Ca / Cl / DBIL / GLC / IP / K / LDH / Na / PL / RALB / TBIL / TC / TG / TP / gamma-GTP: tissue Plasma

With Nc1nc(N)c2nc(-c3ccccc3)c(N)nc2n1 the TERMINAL_BW (3 h) was 214.5 g, the APTT (3 h) was 16.6 s and the Bas (3 h) was 0%. For the same molecule, the Eos (3 h) was 0.8%, the Fbg (3 h) was 295.2 mg/dL and the Hb (3 h) was 14.3 g/dL. For the same molecule, the Ht (3 h) was 43.1%, the Lym (3 h) was 77% and the MCH (3 h) was 21.2 pg. It also gave an MCHC (3 h) of 33.2%, an MCV (3 h) of 64 fL and a Mono (3 h) of 3.4%. The Neu (3 h) was 18.4%, the PT (3 h) was 13.9 s and the Plat (3 h) was 121.1 x10_4/uL. For the same molecule, the RBC (3 h) was 673.2 x10_4/ul, the Ret (3 h) was 7% and the WBC (3 h) was 86.9 x10_2/uL. For the same molecule, the KIDNEY_L (3 h) was 1 g, the KIDNEY_R (3 h) was 1 g and the KIDNEY_TOTAL (3 h) was 1.9 g. It also gave an LIVER (3 h) of 9.5 g, an A/G (3 h) of 0.9 and an ALP (3 h) of 1490.4 IU/L. The ALT (3 h) was 42.4 IU/L, the AST (3 h) was 73.2 IU/L and the BUN (3 h) was 12.2 mg/dL. For the same molecule, the CRE (3 h) was 0.2 mg/dL, the Ca (3 h) was 11 mg/dL and the Cl (3 h) was 105.2 meq/L. The DBIL (3 h) was 0.006 mg/dL, the GLC (3 h) was 165 mg/dL and the IP (3 h) was 8.7 mg/dL. The K (3 h) was 4.7 meq/L, the LDH (3 h) was 59.4 IU/L and the Na (3 h) was 141.4 meq/L. The PL (3 h) was 160.8 mg/dL, the RALB (3 h) was 2.7 g/dL and the TBIL (3 h) was 0.062 mg/dL. It also gave a TC (3 h) of 90.6 mg/dL, a TG (3 h) of 56.2 mg/dL and a TP (3 h) of 5.7 g/dL. It also gave a gamma-GTP (3 h) of 1.4 IU/L, a TERMINAL_BW (6 h) of 207.3 g and an APTT (6 h) of 16.9 s. For the same molecule, the Bas (6 h) was 0%, the Eos (6 h) was 1% and the Fbg (6 h) was 337 mg/dL. The Hb (6 h) was 14.3 g/dL, the Ht (6 h) was 43.5% and the Lym (6 h) was 69.8%. The MCH (6 h) was 20.9 pg, the MCHC (6 h) was 32.9% and the MCV (6 h) was 63.5 fL. For the same molecule, the Mono (6 h) was 2.2%, the Neu (6 h) was 27% and the PT (6 h) was 14.1 s. The Plat (6 h) was 124.3 x10_4/uL, the RBC (6 h) was 685.4 x10_4/ul and the Ret (6 h) was 7.5%. The WBC (6 h) was 81.3 x10_2/uL, the KIDNEY_L (6 h) was 1 g and the KIDNEY_R (6 h) was 1 g. For the same molecule, the KIDNEY_TOTAL (6 h) was 1.9 g, the LIVER (6 h) was 9 g and the A/G (6 h) was 1. For the same molecule, the ALP (6 h) was 1195.2 IU/L, the ALT (6 h) was 35.2 IU/L and the AST (6 h) was 72.4 IU/L. For the same molecule, the BUN (6 h) was 11.4 mg/dL, the CRE (6 h) was 0.2 mg/dL and the Ca (6 h) was 10.9 mg/dL. For the same molecule, the Cl (6 h) was 106.8 meq/L, the DBIL (6 h) was 0.01 mg/dL and the GLC (6 h) was 167.6 mg/dL. For the same molecule, the IP (6 h) was 9.1 mg/dL, the K (6 h) was 5 meq/L and the LDH (6 h) was 62.6 IU/L. It also gave a Na (6 h) of 142.4 meq/L, a PL (6 h) of 149.4 mg/dL and an RALB (6 h) of 2.8 g/dL. For the same molecule, the TBIL (6 h) was 0.06 mg/dL, the TC (6 h) was 81.2 mg/dL and the TG (6 h) was 54 mg/dL. For the same molecule, the TP (6 h) was 5.6 g/dL, the gamma-GTP (6 h) was 1 IU/L and the TERMINAL_BW (9 h) was 208.4 g. The APTT (9 h) was 18 s, the Bas (9 h) was 0% and the Eos (9 h) was 1%. For the same molecule, the Fbg (9 h) was 310.4 mg/dL, the Hb (9 h) was 14.1 g/dL and the Ht (9 h) was 42.6%. For the same molecule, the Lym (9 h) was 70.2%, the MCH (9 h) was 20.9 pg and the MCHC (9 h) was 33.1%. It also gave an MCV (9 h) of 63 fL, a Mono (9 h) of 2% and a Neu (9 h) of 26%. For the same molecule, the PT (9 h) was 13.9 s, the Plat (9 h) was 116.9 x10_4/uL and the RBC (9 h) was 677 x10_4/ul. For the same molecule, the Ret (9 h) was 7.4%, the WBC (9 h) was 88.1 x10_2/uL and the KIDNEY_L (9 h) was 1 g. It also gave a KIDNEY_R (9 h) of 1 g, a KIDNEY_TOTAL (9 h) of 2 g and an LIVER (9 h) of 8.5 g. It also gave an A/G (9 h) of 0.9, an ALP (9 h) of 1205.8 IU/L and an ALT (9 h) of 37 IU/L. The AST (9 h) was 72 IU/L, the BUN (9 h) was 11.4 mg/dL and the CRE (9 h) was 0.2 mg/dL. For the same molecule, the Ca (9 h) was 10.8 mg/dL, the Cl (9 h) was 105.8 meq/L and the DBIL (9 h) was 0.008 mg/dL. The GLC (9 h) was 161.8 mg/dL, the IP (9 h) was 10.6 mg/dL and the K (9 h) was 4.6 meq/L. It also gave an LDH (9 h) of 48.2 IU/L, a Na (9 h) of 142.6 meq/L and a PL (9 h) of 133.6 mg/dL. It also gave an RALB (9 h) of 2.7 g/dL, a TBIL (9 h) of 0.056 mg/dL and a TC (9 h) of 74.2 mg/dL. For the same molecule, the TG (9 h) was 37.4 mg/dL, the TP (9 h) was 5.6 g/dL and the gamma-GTP (9 h) was 1.2 IU/L. For the same molecule, the TERMINAL_BW (24 h) was 227.4 g, the APTT (24 h) was 16.3 s and the Bas (24 h) was 0%. For the same molecule, the Eos (24 h) was 1%, the Fbg (24 h) was 314.2 mg/dL and the Hb (24 h) was 14.1 g/dL. The Ht (24 h) was 42%, the Lym (24 h) was 79.8% and the MCH (24 h) was 22 pg. It also gave an MCHC (24 h) of 33.5%, an MCV (24 h) of 65.5 fL and a Mono (24 h) of 2.4%. The Neu (24 h) was 16.6%, the PT (24 h) was 13.9 s and the Plat (24 h) was 130 x10_4/uL. For the same molecule, the RBC (24 h) was 642 x10_4/ul, the Ret (24 h) was 7.4% and the WBC (24 h) was 86.7 x10_2/uL. For the same molecule, the KIDNEY_L (24 h) was 1 g, the KIDNEY_R (24 h) was 1 g and the KIDNEY_TOTAL (24 h) was 2 g. For the same molecule, the LIVER (24 h) was 10.9 g, the A/G (24 h) was 0.9 and the ALP (24 h) was 1815 IU/L. The ALT (24 h) was 47 IU/L, the AST (24 h) was 67.4 IU/L and the BUN (24 h) was 16.2 mg/dL. It also gave a CRE (24 h) of 0.2 mg/dL, a Ca (24 h) of 11.3 mg/dL and a Cl (24 h) of 105.8 meq/L. It also gave a DBIL (24 h) of 0.01 mg/dL, a GLC (24 h) of 179.8 mg/dL and an IP (24 h) of 8.2 mg/dL. For the same molecule, the K (24 h) was 4 meq/L, the LDH (24 h) was 60.6 IU/L and the Na (24 h) was 144.2 meq/L. For the same molecule, the PL (24 h) was 155.4 mg/dL, the RALB (24 h) was 2.7 g/dL and the TBIL (24 h) was 0.04 mg/dL. It also gave a TC (24 h) of 81 mg/dL, a TG (24 h) of 92 mg/dL and a TP (24 h) of 5.5 g/dL. For the same molecule, the gamma-GTP (24 h) was 1 IU/L.
